Measurements: patent publication US12474347B2, “Determination of protein information by recoding amino acid polymers into DNA polymers” (ABRUS BIO, INC., priority 2022, dated 2025)

Test: Stability of oligonucleotides in anhydrous TFA simulating Edman peptide cleavage conditions (HPLC)
Type: physicochemical
Details: 1 hr in anhydrous TFA (DMSO/TFA, 45 deg C), FIG. 40
Method: A deprotected 15mer DNA oligonucleotide (CCTGTTGTCAATGAG, Sys #003, LO1) (SEQ ID NO: 126) was obtained from Integrated DNA Technologies. Cleavage, deprotection, and desalting were performed by IDT using their standard process. It was resuspended in Mol Bio grade H2O at 160 μM and a 40 μL aliquot was dried (Eppindorf, Vacufuge+, 45° C. for ˜2 hrs) prior to subjecting to Edman cleavage chemistry. The deprotected oligonucleotide material used for the baseline measurement was resuspended as above, but not dried.
A protected DNA oligonucleotide (5Phos/ATGAGTG/iFormInd/AGGGAAATAGCTTCTGGT CGAACTAGTTGTTCGTCAA/idSp/TTTCTTT, Sys #001, SOCAB) (SEQ ID NO: 125) was liberated from CPG support using EndoIV (NEB, M0304) and desalted (Zymo) to provide five 60 μL aliquots at 70 μM of/5Phos/ATGAGTG/iFormInd/[…] (SEQ ID NO: 75), which were dried as described above. The protected oligonucleotide material used for the baseline measurement was desalted as above, but not dried.
In anhydrous environment 40 μL of DMSO was added to each dried aliquot. Following disolution 40 μL TFA was added to each. Solutions were incubated at 45 deg C. for 0 mins, 30 mins, 60 mins, 4 hrs, and overnight. Samples were neutralized by addition of 228 μL of 4.1M imidazole solution at the conclusion of their incubation period. HPLC chromatograms were collected for each sample.

## protected oligos: protected DNA oligonucleotide liberated from CPG support, /5Phos/ATGAGTG/iFormInd/AGGGAAATAGCTTCTGGTCGAACTAGTTGTTCGTCAA (SEQ ID NO: 75) (DNA ATGAGTGNAGGGAAATAGCTTCTGGTCGAACTAGTTGTTCGTCAA; 5' phosphate, internal formylindole, protecting groups; modified_base 1 OTHER; 5' phosphorylated nucleotide; modified_base 8 OTHER; Formylindole modified nucleotide)
  HPLC peak after exposure to anhydrous TFA: largely unchanged
